In the experiment the test system is P388 leukemia ip, CD2F1 mice, survival T/C. The experiment is described as follows: NCI In Vivo Anticancer Drug Screen. Data for tumor model P388 Leukemia (intraperitoneal) in CD2F1 (CDF1) mice. As to conditions: endpoint: median survival time, higher = longer survival. In outline: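 Mice carrying the transplanted tumor received test compound or vehicle. Survival was recorded in each group, and the value is the treated-group measurement divided by that of the vehicle-treated control group.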

The mark [1] stands for this setting: dose: 60.0 mg/kg/injection, schedule: Q01DX005 (ip), vehicle: saline with Tween-80.
The mark [2] stands for this setting: dose: 120.0 mg/kg/injection, schedule: Q01DX005 (ip), vehicle: saline with Tween-80.
[3] abbreviates: dose: 50.0 mg/kg/injection, schedule: Q01DX005 (ip), vehicle: saline with Tween-80.
[4] abbreviates: dose: 100.0 mg/kg/injection, schedule: Q01DX005 (ip), vehicle: saline with Tween-80.
Setting [5] is: dose: 12.5 mg/kg/injection, schedule: Q01DX009 (ip), vehicle: saline.
Setting [6] is: dose: 25.0 mg/kg/injection, schedule: Q01DX009 (ip), vehicle: saline.
[7] abbreviates: dose: 50.0 mg/kg/injection, schedule: Q01DX009 (ip), vehicle: saline.
The mark [8] stands for this setting: dose: 100.0 mg/kg/injection, schedule: Q01DX009 (ip), vehicle: saline.
The mark [9] stands for this setting: dose: 50.0 mg/kg/injection, schedule: Q01DX005 (ip), vehicle: Klucel (hydroxypropylcellulose) (HPC).
The mark [10] stands for this setting: dose: 100.0 mg/kg/injection, schedule: Q01DX005 (ip), vehicle: Klucel (hydroxypropylcellulose) (HPC).
[11] abbreviates: dose: 200.0 mg/kg/injection, schedule: Q01DX005 (ip), vehicle: Klucel (hydroxypropylcellulose) (HPC).
Where [12] appears, read: dose: 50.0 mg/kg/injection, schedule: Q01DX009 (ip), vehicle: Klucel (hydroxypropylcellulose) (HPC).
[13] abbreviates: dose: 100.0 mg/kg/injection, schedule: Q01DX009 (ip), vehicle: Klucel (hydroxypropylcellulose) (HPC).
[14] abbreviates: dose: 200.0 mg/kg/injection, schedule: Q01DX009 (ip), vehicle: Klucel (hydroxypropylcellulose) (HPC).
Where [15] appears, read: dose: 200.0 mg/kg/injection, schedule: Q01DX009 (ip), vehicle: saline.
The mark [16] stands for this setting: dose: 100.0 mg/kg/injection, schedule: Q04DX003 (ip), vehicle: Klucel (hydroxypropylcellulose) (HPC).
Setting [17] is: dose: 200.0 mg/kg/injection, schedule: Q04DX003 (ip), vehicle: Klucel (hydroxypropylcellulose) (HPC).
[18] abbreviates: dose: 400.0 mg/kg/injection, schedule: Q04DX003 (ip), vehicle: Klucel (hydroxypropylcellulose) (HPC).
Setting [19] is: dose: 50.0 mg/kg/injection, schedule: Q01DX009 (ip), vehicle: saline with Tween-80.

The structures appear in SMILES notation. Values joined by “and” are separate entries in the source; they are usually repeats but may differ in a detail not shown here. Identical values can stand only once. Toxic doses and inconclusive results are not listed. Square brackets hold non-standard residues; d marks the D form. Peptide text beside a SMILES is read from it. * marks the point of attachment. ξ: configuration not given here. ξF = NC(Cc1ccccc1)C(=O)O; Bz = O=C(c1ccccc1)*

Consider `O=C1OCC=C1Sc1ccccc1`, for which the T/C by setting is: under setting [1], 106 % of control; under setting [2], 108 % of control.
Consider `CN(C)C1=Nc2ccc(Cl)cc2C(c2ccccc2)=NC1O` (stereo unspecified), for which the T/C (dose: 60.0 mg/kg/injection, schedule: Q01DX005 (ip), vehicle: Klucel (hydroxypropylcellulose) (HPC)) is 95 % of control; the T/C (dose: 120.0 mg/kg/injection, schedule: Q01DX005 (ip), vehicle: Klucel (hydroxypropylcellulose) (HPC)) is 98 % of control; the T/C (dose: 240.0 mg/kg/injection, schedule: Q01DX005 (ip), vehicle: Klucel (hydroxypropylcellulose) (HPC)) is 100 % of control.
In the case of `C=CCOc1cc2c(cc1C(C)c1ccc(OCC)cc1)OCO2` (stereo unspecified), the T/C under setting [3] is 100 % of control and 104 % of control; the T/C under setting [4] is 112 % of control and 91 % of control; the T/C (dose: 200.0 mg/kg/injection, schedule: Q01DX005 (ip), vehicle: saline with Tween-80) was 122 % of control and 123 % of control.
In the case of `CCCCCCCCCCN1CCC(N2CCCCC2)CC1`, the T/C was 98 % of control under setting [5], 100 % of control under setting [6], 99 % of control under setting [7] and 93 % of control under setting [8].
As to `CSc1nccc(=O)n1-c1ccccc1F`, the T/C was 102 % of control (dose: 25.0 mg/kg/injection, schedule: Q04DX002 (ip), vehicle: Klucel (hydroxypropylcellulose) (HPC)); 104 % of control (dose: 50.0 mg/kg/injection, schedule: Q04DX002 (ip), vehicle: Klucel (hydroxypropylcellulose) (HPC)); 102 % of control (dose: 100.0 mg/kg/injection, schedule: Q04DX002 (ip), vehicle: Klucel (hydroxypropylcellulose) (HPC)).
Consider `COc1ccc2c3c([nH]c2c1)[C@H]1C[C@H]2[C@H](C[C@@H](O)[C@H](OC)[C@H]2C(=O)O)CN1CC3`, for which the T/C under setting [9] is 100 % of control, the T/C under setting [10] was 100 % of control and the T/C under setting [11] was 101 % of control.
Regarding `O=C(CNC(=O)c1ccccc1)NCC(=O)NC(Cc1ccccc1)C(=O)O` (stereo not drawn) (Bz-Gly-Gly-[ξF]-OH), the T/C by setting is: under setting [3], 96 % of control; under setting [4], 100 % of control.
`CC(C)(C)c1ccc(C(=O)Nc2ccc(S(N)(=O)=O)cc2)cc1`: the T/C was 100 % of control under setting [12], 100 % of control under setting [13] and 101 % of control under setting [14].
With `CN(C/C=C/CN(C)C(=O)Nc1ccccc1)C(=O)Nc1ccccc1`, the T/C is 96 % of control under setting [7], 100 % of control under setting [8] and 89 % of control under setting [15].
`Cc1ccc(S(=O)(=O)Nc2nnc(-c3coc4ccc(C)cc4c3=O)s2)cc1`: the T/C runs as follows: under setting [3], 89 % of control; under setting [4], 88 % of control.
For `CN(C)C1=c2c(=O)n(C)c(=O)n(C)c2=NC2C=CC=CN12` (stereo unspecified), the T/C reads like this: under setting [9], 100 % of control; under setting [10], 96 % of control; under setting [11], 86 % of control.
For the compound `C[n+]1c2ccccc2c(Cc2ccccc2)c2ccccc21`, the T/C runs as follows: (dose: 12.5 mg/kg/injection, schedule: Q01DX005 (ip), vehicle: saline with Tween-80) 108 % of control; (dose: 25.0 mg/kg/injection, schedule: Q01DX005 (ip), vehicle: saline with Tween-80) 106 % of control; under setting [3], 100 % of control and 94 % of control.
In the case of `CCOC(=O)c1sc2nc(C)[nH]c(=O)c2c1C`, the T/C under setting [3] is 99 % of control.
With `COc1ccc2c(c1O)-c1c(O)c(OC)cc3c1[C@H](C2)[N+](C)(C)CC3`, the T/C is, setting by setting: (dose: 12.5 mg/kg/injection, schedule: Q04DX003 (ip), vehicle: saline) 109 % of control; (dose: 25.0 mg/kg/injection, schedule: Q04DX003 (ip), vehicle: saline) 114 % of control; (dose: 50.0 mg/kg/injection, schedule: Q04DX003 (ip), vehicle: saline) 98 % of control and 109 % of control; (dose: 100.0 mg/kg/injection, schedule: Q04DX003 (ip), vehicle: saline) 113 % of control.
For the compound `Cn1cccc1/C=N/N1CC(=O)N(c2ccccc2)CC1=O`, the T/C is, setting by setting: under setting [3], 108 % of control; under setting [4], 100 % of control.
`O=C1COCC(=O)OCCOCCSCCOCCO1`: the T/C is, setting by setting: under setting [16], 102 % of control; under setting [17], 102 % of control; under setting [18], 100 % of control.
Consider `CCN(CC)CCCCNc1ccc(NCCCCN(CC)CC)c2c1C(=O)c1ccccc1C2=O`, for which the T/C by setting is: (dose: 3.12 mg/kg/injection, schedule: Q01DX009 (ip), vehicle: saline) 90 % of control; (dose: 6.25 mg/kg/injection, schedule: Q01DX009 (ip), vehicle: saline) 90 % of control; (dose: 12.5 mg/kg/injection, schedule: Q01DX009 (ip), vehicle: saline with Tween-80) 118 % of control; under setting [5], 97 % of control; (dose: 25.0 mg/kg/injection, schedule: Q01DX009 (ip), vehicle: saline with Tween-80) 115 % of control; under setting [19], 120 % of control. In addition, the T/C under setting [7] was 91 % of control and the T/C under setting [8] was 100 % of control.
As to `CCN1C(Cl)=NS(=O)(=O)c2ccccc21`, the T/C reads like this: (dose: 15.0 mg/kg/injection, schedule: Q01DX005 (ip), vehicle: saline with Tween-80) 116 % of control; (dose: 30.0 mg/kg/injection, schedule: Q01DX005 (ip), vehicle: saline with Tween-80) 113 % of control; under setting [1], 100 % of control.
Turning to `CC(C)=NN/C=N/S(C)(=O)=O`, the T/C by setting is: (dose: 100.0 mg/kg/injection, schedule: Q04DX002 (ip), vehicle: saline) 105 % of control; (dose: 200.0 mg/kg/injection, schedule: Q04DX002 (ip), vehicle: saline) 104 % of control; (dose: 400.0 mg/kg/injection, schedule: Q04DX002 (ip), vehicle: saline) 104 % of control.
On to `N#CC1C(=O)NC(=O)C(C#N)C1c1c2ccccc2cc2ccccc12` (stereo unspecified), for which the T/C under setting [12] was 100 % of control, the T/C under setting [13] was 100 % of control and the T/C under setting [14] was 100 % of control.
In the case of `O=C(Nc1ccc(Cl)c(C(F)(F)F)c1)Nc1c(Oc2ccc(Cl)c(Cl)c2)ccc(Cl)c1S(=O)(=O)O`, the T/C under setting [6] is 118 % of control, the T/C under setting [7] is 118 % of control and the T/C under setting [8] was 118 % of control.
For the compound `NC(=O)c1[nH]c(N=Nc2ccc(S(N)(=O)=O)cc2)nc1N`, the T/C under setting [16] was 100 % of control, the T/C under setting [17] is 101 % of control and the T/C under setting [18] was 94 % of control.
For `O=S1(=O)C=C(Cl)C1`, the T/C under setting [3] is 110 % of control and the T/C under setting [4] was 96 % of control.
`O=c1[nH][nH]c(=S)n1-c1ccccc1`: the T/C reads like this: under setting [19], 98 % of control; (dose: 100.0 mg/kg/injection, schedule: Q01DX009 (ip), vehicle: saline with Tween-80) 101 % of control; (dose: 200.0 mg/kg/injection, schedule: Q01DX009 (ip), vehicle: saline with Tween-80) 94 % of control; (dose: 400.0 mg/kg/injection, schedule: Q01DX009 (ip), vehicle: saline with Tween-80) 88 % of control.
Regarding `CC(C)C1=CC23CCC4C(C)(C(=O)O)CCCC4(C)C2CC1C1C(=O)N(CCCN(C)C)C(=O)C13` (stereo unspecified), the T/C by setting is: under setting [1], 104 % of control; under setting [2], 99 % of control.
For `COCN(CCc1ccccc1)CCN(C)C`, the T/C under setting [7] was 113 % of control and the T/C under setting [8] is 109 % of control.
With `O=C(Oc1ccc2c(=O)cc(-c3ccccc3)oc2c1OC(=O)c1ccccc1)c1ccccc1`, the T/C under setting [1] was 94 % of control; the T/C under setting [2] was 93 % of control; the T/C (dose: 240.0 mg/kg/injection, schedule: Q01DX005 (ip), vehicle: saline with Tween-80) is 90 % of control.
On to `CCOC(=O)C1=CNN=CC12C(=O)C(C(=O)OCC)CC2C(=O)OCC` (stereo unspecified), for which the T/C reads like this: (dose: 100.0 mg/kg/injection, schedule: Q04DX002 (ip), vehicle: saline with Tween-80) 96 % of control; (dose: 200.0 mg/kg/injection, schedule: Q04DX002 (ip), vehicle: saline with Tween-80) 93 % of control; (dose: 400.0 mg/kg/injection, schedule: Q04DX002 (ip), vehicle: saline with Tween-80) 92 % of control.
In the case of `CP1(=S)CCC2=C1c1ccc(O)cc1CC2` (stereo unspecified), the T/C was 100 % of control under setting [7], 100 % of control under setting [8] and 101 % of control under setting [15].

The record behind these values is PubChem BioAssay AID330 (DTP/NCI, 2004).
